Source: paper PMC6440977, “Nucleoside analogue activators of cyclic AMP-independent protein kinase A of Trypanosoma” (Nature Communications, 2019)
Values joined by “and” are separate entries in the source; they are usually repeats but may differ in a detail not shown here. Equal values may be shown once. “Also recorded” adds a separate entry of the source. Read-outs that look alike come from different tables or passages of the source.

Key:
[1] = molecular target: T. brucei PKAR-PKAC1 holoenzyme (Trypanosoma brucei, UniProt Q9GU80); test: biochemical; type: biochemical; details: for In vitro kinase assay: technical replicates
T. brucei PKAR-PKAC1 holoenzyme, sequence (Q38DR5 entry or part of it): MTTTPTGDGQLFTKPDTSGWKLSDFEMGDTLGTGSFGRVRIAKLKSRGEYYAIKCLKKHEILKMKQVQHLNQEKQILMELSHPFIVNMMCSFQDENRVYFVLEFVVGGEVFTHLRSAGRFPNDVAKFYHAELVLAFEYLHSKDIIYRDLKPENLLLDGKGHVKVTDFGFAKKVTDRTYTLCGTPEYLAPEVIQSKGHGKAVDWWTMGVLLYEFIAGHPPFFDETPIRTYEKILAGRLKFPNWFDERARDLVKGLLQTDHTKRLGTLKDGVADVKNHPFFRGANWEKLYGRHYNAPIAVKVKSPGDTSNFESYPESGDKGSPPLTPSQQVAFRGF
T. brucei PKAR-PKAC1 holoenzyme, sequence (Q9GU80 entry or part of it): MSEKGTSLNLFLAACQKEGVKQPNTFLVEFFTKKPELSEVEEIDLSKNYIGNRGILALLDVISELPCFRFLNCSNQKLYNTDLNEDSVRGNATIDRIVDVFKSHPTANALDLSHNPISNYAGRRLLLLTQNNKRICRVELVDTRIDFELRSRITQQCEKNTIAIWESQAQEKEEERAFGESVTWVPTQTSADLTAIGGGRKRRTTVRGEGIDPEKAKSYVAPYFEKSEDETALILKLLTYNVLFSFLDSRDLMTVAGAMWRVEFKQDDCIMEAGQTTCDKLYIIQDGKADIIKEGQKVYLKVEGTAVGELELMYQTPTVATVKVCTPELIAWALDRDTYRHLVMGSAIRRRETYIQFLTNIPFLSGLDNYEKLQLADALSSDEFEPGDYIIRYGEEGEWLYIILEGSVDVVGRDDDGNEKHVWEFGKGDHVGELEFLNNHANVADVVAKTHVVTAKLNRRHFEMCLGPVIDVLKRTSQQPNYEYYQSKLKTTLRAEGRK

[2] = molecular target: T. brucei PKA (Trypanosoma brucei brucei, UniProt Q9GU80); test: In vivo PKA reporter assay (VASP Ser-157 phosphorylation, western blot); type: cell-based; details: for EC50: read-out: EC50 in vivo PKA assay, VASP reporter, 15 min treatment, mean ± SD; for % VASP phosphorylation: CpdA 10 µM, replicates; for effect on in vivo PKA activity (VASP phosphorylation), in words: wild type background;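 as to % VASP phosphorylation: Phosphorylated VASP as percent of total VASP band signal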;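 as to all read-outs here: T. brucei cells expressing human VASP as heterologous PKA substrate, compound exposure at 37 °C, western blot of phospho (50 kDa) versus unphosphorylated (46 kDa) VASP band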
T. brucei PKA, sequence (Q38DS1 entry or part of it): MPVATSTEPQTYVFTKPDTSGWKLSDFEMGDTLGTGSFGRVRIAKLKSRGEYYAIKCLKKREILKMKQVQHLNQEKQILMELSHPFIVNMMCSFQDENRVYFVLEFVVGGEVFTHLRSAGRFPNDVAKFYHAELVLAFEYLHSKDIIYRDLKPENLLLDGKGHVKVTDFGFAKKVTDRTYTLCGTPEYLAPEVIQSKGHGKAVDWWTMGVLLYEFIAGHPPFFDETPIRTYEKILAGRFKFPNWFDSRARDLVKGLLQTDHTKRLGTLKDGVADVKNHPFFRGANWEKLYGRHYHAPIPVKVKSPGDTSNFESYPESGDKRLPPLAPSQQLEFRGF
T. brucei PKA, sequence (Q38DR5 entry or part of it, further chain): as the sequence (Q38DR5 entry or part of it) above

[3] = system: T. brucei ∆pkar/∆pkar (pkar KO) cells; test: microbe, parasite or virus in culture; type: cell-based, Trypanosoma brucei; details: Trypanosoma brucei, 72 h, read-out: IC50 growth pkar KO
[4] = system: T. brucei BSF cells (WT); test: Alamar blue cell viability assay, wild type; details: Trypanosoma brucei, 72 h, read-out: IC50 growth WT;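 also: trypanosomes seeded at 5×10^3 per ml and grown 72 h with compound, then resazurin 0.5 mM added for 4 h as the viability read-out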
[5] = molecular target: T. brucei PKAR(199–499) (Trypanosoma brucei, UniProt Q9GU80); test: biochemical; type: binding; parameters: Thermodynamics (ITC) -TΔS / Thermodynamics (ITC) ΔG / Thermodynamics (ITC) ΔH: unit: kcal/mol
T. brucei PKAR(199–499), sequence (Q9GU80 entry or part of it): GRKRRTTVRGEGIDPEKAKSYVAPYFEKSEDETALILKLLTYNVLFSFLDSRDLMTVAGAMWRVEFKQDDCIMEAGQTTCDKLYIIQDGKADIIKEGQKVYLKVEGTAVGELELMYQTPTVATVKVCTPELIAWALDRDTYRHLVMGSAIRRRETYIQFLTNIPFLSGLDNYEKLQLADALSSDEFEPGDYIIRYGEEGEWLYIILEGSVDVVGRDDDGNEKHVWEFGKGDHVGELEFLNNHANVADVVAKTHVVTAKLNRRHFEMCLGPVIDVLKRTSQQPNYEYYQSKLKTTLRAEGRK

[6] = molecular target: T1, human PKARIα (Homo sapiens, UniProt P10644); test: Binding by isothermal titration calorimetry (ITC)
T1 construct: The full length ORFs (amplified with primers introducing the respective); 6xHis followed by TEV site (N); made in house; host or cells: E. coli Rosetta D3
T1 sequence (P10644 whole entry): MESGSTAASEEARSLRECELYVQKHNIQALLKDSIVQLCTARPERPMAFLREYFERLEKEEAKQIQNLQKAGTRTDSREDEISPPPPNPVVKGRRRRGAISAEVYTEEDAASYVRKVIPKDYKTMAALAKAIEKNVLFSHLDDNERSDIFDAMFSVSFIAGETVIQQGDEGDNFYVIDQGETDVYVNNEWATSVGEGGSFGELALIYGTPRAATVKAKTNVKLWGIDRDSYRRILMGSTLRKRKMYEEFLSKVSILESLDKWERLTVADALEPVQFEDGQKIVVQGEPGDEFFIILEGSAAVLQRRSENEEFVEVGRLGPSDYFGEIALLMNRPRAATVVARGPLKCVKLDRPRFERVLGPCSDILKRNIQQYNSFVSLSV

[7] = system: intracellular cAMP; test: Cyclic AMP measurement (intracellular cAMP content); type: cell-based, Trypanosoma brucei; details: for pmol cAMP / 10^9 cells: independent replicates
[8] = system: cAMP release into the medium; test: Fraction of cAMP in cell supernatant versus total cell lysate; details: CpdA treatment 10 µM, 15 min
[9] = system: T. brucei PKA holoenzyme (Ty1-PKAC1); type: biochemical, Trypanosoma brucei; details: for in vitro kinase assay [CPM] / in vitro kinase assay [CPM], PKI: 5 µM PKI(5-24); for in vitro kinase assay [CPM], PKI: control without cyclic nucleotide
[10] = system: T. brucei PKA holoenzyme (HA-PKAC2); type: biochemical, Trypanosoma brucei; details: control without cyclic nucleotide, 5 µM PKI(5-24)
[11] = system: T. brucei PKA holoenzyme (PKAR-Ty1); type: biochemical, Trypanosoma brucei; details: control without cyclic nucleotide, 5 µM PKI(5-24)

Nc1ncnc2c1c(Br)cn2[C@@H]1O[C@H](CO)[C@@H](O)[C@H]1O [5-Br-Tu, 7-Bromo-7-deazaadenosine] was tested, and the EC50 [1] was 1.7 ± 1.4 µM, the “In vitro kinase assay” value ([1]; 0.049 µM) was 0.15 U/ml and 0.17 U/ml and the “In vitro kinase assay” value ([1]; 0.098 µM) was 0.25 U/ml and 0.22 U/ml. For the same molecule, the “In vitro kinase assay” value ([1]; 0.195 µM) was 0.27 U/ml and 0.24 U/ml, the “In vitro kinase assay” value ([1]; 0.391 µM) was 0.37 U/ml and 0.39 U/ml and the “In vitro kinase assay” value ([1]; 0.781 µM) was 0.53 U/ml and 0.48 U/ml. The “In vitro kinase assay” value ([1]; 1.563 µM) was 0.72 U/ml and 0.59 U/ml, the “In vitro kinase assay” value ([1]; 3.125 µM) was 0.85 U/ml and 0.72 U/ml and the “In vitro kinase assay” value ([1]; 6.25 µM) was 0.89 U/ml and 1.03 U/ml. For the same molecule, the “In vitro kinase assay” value ([1]; 12.5 µM) was 1.09 U/ml and 1.13 U/ml, the “In vitro kinase assay” value ([1]; 25 µM) was 1.41 U/ml and 1.21 U/ml and the “In vitro kinase assay” value ([1]; 50 µM) was 1.29 U/ml and 1.22 U/ml. For the same molecule, the EC50 [2] was 0.625 ± 0.066 µM, the IC50 [3] was 1.01 ± 0.095 µM and the IC50 [4] was 0.874 ± 0.122 µM.

For Nc1ncnc2c1c(I)cn2[C@@H]1O[C@H](CO)[C@@H](O)[C@H]1O [5-I-Tu, 7-Iodo-7-deazaadenosine], the EC50 [1] was 0.203 ± 0.079 µM, the “In vitro kinase assay” value ([1]; 0.001 µM) was 0.15 U/ml and 0.13 U/ml and the “In vitro kinase assay” value ([1]; 0.05 µM) was 0.22 U/ml and 0.25 U/ml. For the same molecule, the “In vitro kinase assay” value ([1]; 0.1 µM) was 0.4 U/ml and 0.36 U/ml, the “In vitro kinase assay” value ([1]; 0.2 µM) was 0.45 U/ml and the “In vitro kinase assay” value ([1]; 0.39 µM) was 0.75 U/ml and 0.61 U/ml. The “In vitro kinase assay” value ([1]; 0.78 µM) was 0.77 U/ml and 0.8 U/ml, the “In vitro kinase assay” value ([1]; 1.56 µM) was 0.79 U/ml and 0.91 U/ml and the “In vitro kinase assay” value ([1]; 3.13 µM) was 0.81 U/ml and 0.96 U/ml. For the same molecule, the Kd [5] was 0.032 ± 0.009 µM, the “Thermodynamics (ITC) -TΔS” value ([5]; independent replicates) was 6.36 and 3.65 and 4.67 and the “Thermodynamics (ITC) ΔG” value ([5]; independent replicates) was -10.1 and -10.5. For the same molecule, the “Thermodynamics (ITC) ΔH” value ([5]; independent replicates) was -16.5 and -14.1 and -14.8, the EC50 [2] was 0.39 ± 0.02 µM and the IC50 [3] was 0.346 ± 0.041 µM. The IC50 [4] was 0.33 ± 0.038 µM and the “binding to purified human PKARIα, in words” value [6] was “did not bind”.

With COc1ccc(C2=NN(C3CCCCCC3)C(=O)[C@@H]3CC=CC[C@H]23)cc1OCCCCOc1ccc(-c2nn[nH]n2)cc1 [CpdA] the “increase of intracellular cAMP content” value ([7]; 10 µM, 15 min) was “up to 600 fold”, the “pmol cAMP / 10^9 cells” value ([7]; 10 µM, 15 min) was 7046.18 pmol cAMP / 10^9 cells and 6980.91 pmol cAMP / 10^9 cells and 7465.44 pmol cAMP / 10^9 cells and 6294.38 pmol cAMP / 10^9 cells and 9321.55 pmol cAMP / 10^9 cells and 2818.14 pmol cAMP / 10^9 cells and the “% cAMP, total, mean” value ([7]; CpdA treatment 10 µM, 15 min, total cAMP content set to 100%, mean of technical replicates) was 94.1035%. For the same molecule, the “% cAMP, total” value ([7]; CpdA treatment 10 µM, 15 min, total cAMP content set to 100%, technical replicates) was 100% and 88.2071%, the “nM cAMP, total” value ([7]; CpdA treatment 10 µM, 15 min, total, technical replicates) was 1891.66 nM and 1668.58 nM and the “% VASP phosphorylation” value ([2]; 0 min) was 37.2015% and 33.1548% and 30.9406%. For the same molecule, the “% VASP phosphorylation” value ([2]; 5 min) was 28.9269% and 25.7882% and 23.4179%, the “% VASP phosphorylation” value ([2]; 10 min) was 28.8598% and 22.1225% and 21.1026% and the “% VASP phosphorylation” value ([2]; 15 min) was 26.7433% and 23.5931% and 18.9766%. For the same molecule, the “effect on in vivo PKA activity (VASP phosphorylation), in words” value [2] was “did not elicit any change”, the “% cAMP, supernatant, mean” value ([8]; mean of technical replicates) was 3.201% and the “nM cAMP, supernatant” value ([8]; technical replicates) was 74.7051 nM and 46.4145 nM. For the same molecule, the “% cAMP, supernatant” value ([8]; total cAMP content set to 100%) was 3.949% and 2.454%.

In the case of OCCN(CCO)c1nc(N2CCCCC2)c2nc(N(CCO)CCO)nc(N3CCCCC3)c2n1 [Dipyridamole], the “effect in the in vitro kinase assay, in words” value [1] is reported as “did not have any effect; also recorded: No effect”, the “change of intracellular cAMP content, in words” value ([7]; 100 µM) is reported as “moderate increase” and the “pmol cAMP / 10^9 cells” value ([7]; 100 µM, 15 min, listed as Dip) is reported as 61.8873 pmol cAMP / 10^9 cells and 63.0147 pmol cAMP / 10^9 cells and 44.8294 pmol cAMP / 10^9 cells and 64.5236 pmol cAMP / 10^9 cells and 80.946 pmol cAMP / 10^9 cells and 55.0958 pmol cAMP / 10^9 cells. For the same molecule, the “pmol cAMP / 10^9 cells” value ([7]; 100 µM, 90 min, listed as Dip) was 47.769 pmol cAMP / 10^9 cells and 56.3468 pmol cAMP / 10^9 cells and 59.8493 pmol cAMP / 10^9 cells and 40.4717 pmol cAMP / 10^9 cells and 46.5418 pmol cAMP / 10^9 cells and 46.5962 pmol cAMP / 10^9 cells, the “induction of VASP phosphorylation in pkar knock out, in words” value ([2]; homozygous deletion of PKAR) was “no induction” and the EC50 [2] was 22.4 ± 4.2 µM. For the same molecule, the “effect on in vivo PKA activity (VASP phosphorylation), in words” value [2] was “dose- and time-dependent induction”, the IC50 [3] was 16.3 ± 1.8 µM and the IC50 [4] was 9.9 ± 1 µM.

NC(=O)c1cn([C@@H]2O[C@H](CO)[C@@H](O)[C@H]2O)c2ncnc(N)c12 [Sangivamycin, 7-Carboxamido-7-deazaadenosine] was tested, and the EC50 [1] was 10.8 µM, the “In vitro kinase assay” value ([1]; 0.049 µM) was 0.15 U/ml and 0.17 U/ml and the “In vitro kinase assay” value ([1]; 0.098 µM) was 0.15 U/ml. For the same molecule, the “In vitro kinase assay” value ([1]; 0.195 µM) was 0.19 U/ml and 0.18 U/ml, the “In vitro kinase assay” value ([1]; 0.391 µM) was 0.2 U/ml and 0.15 U/ml and the “In vitro kinase assay” value ([1]; 0.781 µM) was 0.17 U/ml. The “In vitro kinase assay” value ([1]; 1.563 µM) was 0.2 U/ml and 0.16 U/ml, the “In vitro kinase assay” value ([1]; 3.125 µM) was 0.22 U/ml and 0.24 U/ml and the “In vitro kinase assay” value ([1]; 6.25 µM) was 0.29 U/ml and 0.28 U/ml. For the same molecule, the “In vitro kinase assay” value ([1]; 12.5 µM) was 0.33 U/ml and 0.31 U/ml, the “In vitro kinase assay” value ([1]; 25 µM) was 0.44 U/ml and 0.4 U/ml and the “In vitro kinase assay” value ([1]; 50 µM) was 0.44 U/ml. It also gave an EC50 [2] of 39.3 ± 5.6 µM, an EC50 ([2]; listed as sangivamycin) of 39 µM and an IC50 [3] of 1.55 ± 0.171 µM. It also gave an IC50 [4] of 0.713 ± 0.04 µM.

PKI(5–24) was tested, and the “in vitro kinase assay [CPM]” value ([9]; Ty1-PKAC1#1) was 1999.9 CPM, the “in vitro kinase assay [CPM]” value ([9]; Ty1-PKAC1#2) was 1386.5 CPM and the “in vitro kinase assay [CPM]” value ([9]; Ty1-PKAC1-dead#11) was 834.7 CPM. The “in vitro kinase assay [CPM]” value ([9]; Ty1-PKAC1-dead#12) was 571.7 CPM, the “in vitro kinase assay [CPM]” value ([9]; Ty1-PKAC1-dead#14) was 1493.5 CPM and the “in vitro kinase assay [CPM]” value ([9]; pull down from WT cells (negative control)) was 398.6 CPM. For the same molecule, the “phosphorylation of kemptide, in words” value ([9]; 5 µM inhibitor) was “inhibited”, the “in vitro kinase assay [CPM], PKI” value ([9]; Supp Fig 3b) was 963.87 CPM and the “in vitro kinase assay [CPM], PKI” value ([9]; Supp Fig 3c) was 528.13 CPM. For the same molecule, the “in vitro kinase assay [CPM], PKI” value [10] was 483.2 CPM and the “in vitro kinase assay [CPM], PKI” value [11] was 1399.6 CPM.
